Source: US20090192164A1, “Treating agent of inflammatory bowel disease” (ASKA Pharmaceutical Co., Ltd., priority 2006, published 2009)

Experiments:
[1] = tested on: TNF-α production in THP-1 cells; assay: TNF-α production-inhibiting activity in LPS-stimulated THP-1 cells; format: cell-based; conditions: Homo sapiens, 2 hours, ELISA
Description: (2) Measurement of TNF-α Production-Inhibiting Activity:
THP-1 (purchased from Dainippon Pharmaceuticals Co.) which are human-derived cultured cells, were suspended in RPMI1640 culture medium (10% fetal bovine serum, containing 100 units/mL penicillin) (1×10^5 cells/mL). Onto a 24-well culture plate, 1.6 mL of the THP-1 cell suspension was inoculated, and further 0.2 mL of the test substance as dissolved in RPM11640 culture medium and 0.2 mL of LPS (E. Coli 055: B5-derived, dissolved in RPM11640 culture medium, Difco) at a concentration of 10 μg/mL were added, followed by 2 hours' cultivation under the conditions of 37° C. and 5% CO2. The supernatant obtained upon centrifugation (500×g, 5 min.) was assayed with ELISA (Amersham Bioscience, TNF-α: Human, ELISA Biotrak System) to quantify TNF-α. The concentration of each test substance required to inhibit TNF-α production by 50% (IC50) was determined as follows. First, TNF-α production inhibition (%) values at various concentrations were determined by the following formula: […]
The TNF-α production inhibition (%) obtained by the above formula and the concentration of the test substance in that occasion were computed on Prism 4 for Windows Ver 4.02 (Graph Pad Software, Inc.) to calculate IC50 value.

[2] = Compounds' extinction rates in human liver S9; format: in vitro ADME; conditions: human liver S9 0.5 mg protein/mL, compound 1 μmol/L, 37° C.
Description: (3) Measurement of the Compounds' Extinction Rates:
To a potassium phosphate buffer solution (50 mmol/L, pH […]) containing NADPH production system (formed of 3.3 mmol/L MgCl2, 3.3 mmol/L glucose-6-phosphate, 1.3 mmol/L β-NAPD^+ and 0.4 unit/mL glucose-6-phosphate dehydrogenase), each test compound was added (in which occasion the final concentration was made 1 μmol/L) and incubated at 37° C. for 2 minutes. After the incubation, a suspension of human liver S9 (supernatant fraction obtained by centrifugation of crushed human liver cells at 9000×g) in potassium phosphate buffer solution was added to a final concentration of 0.5 mg protein/mL. This liquid reaction mixture was incubated at 37° C. for 5 minutes, to which 4 volume times thereof of acetonitrile was added, mixed, and cooled with ice. After the cooling with ice, the mixture was centrifuged (2000×g, 10 min.) and a part of the supernatant was recovered and analyzed with LSIMS/MS to calculate the residual ratio of unchanged substance in the reaction solution. The results are shown in the following Table B concurrently with the results of above (2) measurement of TNF-α production-inhibiting activity.

| IC50 [1] [nM] | Parent compound remaining after 5 min in human liver S9 (%) [2] [%] | SMILES |
| --- | --- | --- |
| 13.7 | 52.6 | Cc1cc(-c2noc(NC(=O)Cc3ccccc3C)c2-c2ccncn2)ccc1F [Compound B-13, 3-(3-Methyl-4-fluorophenyl)-5-[(2-methylphenyl)acetylamino]-4-(4-pyrimidinyl)isoxazole] |
| 65.5 | 17.6 | Cc1cccc(-c2noc(NC(=O)CCc3ccccc3)c2-c2ccncc2)c1 [Compound B-14, 3-(3-Methylphenyl)-5-(3-phenylpropionylamino)-4-(4-pyridyl)isoxazole] |
| 52.9 | 23.3 | Cc1cccc(-c2noc(NC(=O)CCc3ccccc3C)c2-c2ccncc2)c1 [Compound B-15, 3-(3-Methylphenyl)-5-[(2-methylphenyl)propionylamino]-4-(4-pyridyl)isoxazole] |
| 58.1 | 50.5 | Cc1ccc(F)c(-c2noc(NC(=O)CCc3cccc(Cl)c3)c2-c2ccncc2)c1 [Compound B-16, 5-[(3-Chlorophenyl)propionylamino]-3-(2-fluoro-5-methyl-phenyl)-4-(4-pyridyl)isoxazole] |
| 78.1 | 58.0 | Cc1cc(-c2noc(NC(=O)Cc3ccccc3)c2-c2ccncc2)ccc1F [Compound B-17, 3-(4-Fluoro-3-methylphenyl)-5-(phenylacetylamino)-4-(4-pyridyl)isoxazole] |
| 85.2 | 59.7 | Cc1cc(-c2noc(NC(=O)Cc3ccccc3Cl)c2-c2ccncc2)ccc1F [Compound B-18, 5-[(2-Chlorophenyl)acetylamino]-3-(4-fluoro-3-methylphenyl)-4-(4-pyridyl)isoxazole] |
| 66 | 20.1 | Cc1cc(-c2noc(NC(=O)CCc3ccccc3)c2-c2ccncc2)ccc1F [Compound B-19, 3-(4-Fluoro-3-methylphenyl)-5-(3-phenylpropionylamino)-4-(4-pyridyl)isoxazole] |
| 83.3 | 77.0 | CCCn1nc(-c2ccc(F)cc2)c(-c2ccncc2)c1C(=O)OCc1ccccc1Cl [Compound B-20] |
| 61.5 | 56.4 | CCn1nc(-c2ccc(F)cc2)c(-c2ccncn2)c1C(=O)OCc1ccc(Cl)cc1Cl [Compound B-21] |
| 45.5 | 25.5 | Cc1cccc(-c2nn(C)c(COC(=O)c3ccccc3)c2-c2ccncc2)c1 [Compound B-22] |
| 26.5 | 28.3 | CCn1nc(-c2cccc(C)c2)c(-c2ccncc2)c1COC(=O)c1ccccc1 [Compound B-23] |

Further lines, the compound ahead of its results:

| SMILES | IC50 [1] [nM] | Parent compound remaining after 5 min in human liver S9 (%) [2] [%] |
| --- | --- | --- |
| O=C(Cc1ccccc1Cl)Nc1onc(-c2ccc(F)cc2)c1-c1ccncn1 [Compound B-1, 5-[(2-Chlorophenyl)acetylamino]-3-(4-fluorophenyl)-4-(4-pyrimidinyl)isoxazole] | 36.1 | 5.8 |
| O=C(Cc1c(F)cccc1Cl)Nc1onc(-c2ccc(F)cc2)c1-c1ccncn1 [Compound B-2, 5-[(2-Chloro-6-fluorophenyl)acetylamino]-3-(4-fluorophenyl)-4-(4-pyrimidinyl)isoxazole] | 67.9 | 16.1 |
| O=C(Cc1ccccc1Cl)Nc1onc(-c2ccc(Cl)cc2)c1-c1ccncn1 [Compound B-3, 3-(4-Chlorophenyl)-5-[(2-chlorophenyl)acetylamino]-4-(4-pyrimidinyl)isoxazole] | 48.7 | 53.1 |
| O=C(Cc1ccccc1Cl)Nc1onc(-c2ccc(F)cc2F)c1-c1ccncn1 [Compound B-4, 5-[(2-Chlorophenyl)acetylamino]-3-(2,4-difluorophenyl)-4-(4-pyrimidinyl)isoxazole] | 32.1 | 20.4 |
| Cc1cccc(CC(=O)Nc2onc(-c3ccc(F)cc3F)c2-c2ccncn2)c1 [Compound B-5, 3-(2,4-Difluorophenyl)-5-[(3-methylphenyl)acetylamino]-4-(4-pyrimidinyl)isoxazole] | 139 | 46.6 |
| COc1ccc(-c2noc(NC(=O)Cc3ccccc3Cl)c2-c2ccncn2)c(F)c1 [Compound B-6, 5-[(2-Chlorophenyl)acetylamino]-3-(2-fluoro-4-methoxyphenyl)-4-(4-pyrimidinyl)isoxazole] | 28.5 | 24.1 |
| Cc1cccc(-c2noc(NC(=O)Cc3ccccc3Cl)c2-c2ccncn2)c1 [Compound B-7, 5-[(2-Chlorophenyl)acetylamino]-3-(3-methylphenyl)-4-(4-pyrimidinyl)isoxazole] | 36.7 | 21.2 |
| Cc1cccc(-c2noc(NC(=O)Cc3ccccc3Br)c2-c2ccncn2)c1 [Compound B-8, 5-[(2-Bromophenyl)acetylamino]-3-(3-methylphenyl)-4-(4-pyrimidinyl)isoxazole] | 49.2 | 43.6 |
| Cc1cccc(-c2noc(NC(=O)Cc3ccccc3C)c2-c2ccncn2)c1 [Compound B-9, 3-(3-Methylphenyl)-5-[(2-methylphenyl)acetylamino]-4-(4-pyrimidinyl)isoxazole] | 13.4 | 59.9 |
| Cc1cccc(CC(=O)Nc2onc(-c3cccc(C)c3)c2-c2ccncn2)c1 [Compound B-10, 3-(3-Methylphenyl)-5-[(3-methylphenyl)acetylamino]-4-(4-pyrimidinyl)isoxazole] | 152 | 38.5 |
| Cc1ccc(F)c(-c2noc(NC(=O)Cc3ccccc3)c2-c2ccncn2)c1 [Compound B-11, 3-(2-Fluoro-5-methylphenyl)-5-(phenylacetylamino)-4-(4-pyrimidinyl)isoxazole] | 90.5 | 39.8 |
| COc1cccc(CC(=O)Nc2onc(-c3ccc(F)c(C)c3)c2-c2ccncn2)c1 [Compound B-12, 5-[(3-Methoxyphenyl)acetylamino]-3-(3-methyl-4-fluorophenyl)-4-(4-pyrimidinyl)isoxazole] | 52.6 | 33.1 |
